Results on 21 compounds are retold here after patent publication US4591604A, “Method of inhibiting the complement system by administering multisulfonated naphthalene ureas” (American Cyanamid Company, priority 1984, dated 1986).

Structures can show the parent of a compound that is named as a salt.

The test system of assay [1] is serum complement activity. In words: Guinea Pig Intraperitoneal Test (GPIP). In kind it is in vivo. The conditions noted are these: 200 mg/kg i.p.; for In vivo Activity Guinea Pigs Intraperitoneal % Lowering, 30 minutes: blood sample 30 minutes after injection; for In vivo Activity Guinea Pigs Intraperitoneal % Lowering, 60 minutes: blood sample 60 minutes after injection; for In vivo Activity Guinea Pigs Intraperitoneal % Lowering, 120 minutes: blood sample 120 minutes after injection. The method, then:
(§1) An active inhibitor protects C2 from C1 and C4; (ii) Test Code 036 (C-Shunt inhibitor)--In this test human erythrocytes rendered fragile are lysed in autologous serum via the shunt pathway activated by cobra venom factor in the presence of appropriate dilutions of the test compound. Inhibition of the shunt pathway results in failure of lysis; (iii) Cap 50 Test--Here, appropriate amounts of the test compound are added to a pool of guinea pig serum in vitro, after which the complement level is determined in undiluted serum by the serum capillary tube assay of U.S. Pat. No. 3,876,376. The concentration of compound inhibiting 50% is reported; and (iv) Guinea Pig Intraperitoneal Test (GPIP)--Guinea pigs weighing about 300 g are dosed intraperitoneally (i.p.) with 200 mg/kg of the test compound dissolved in saline and adjusted to pH 7-8. Approximately 0.4 ml blood samples, taken by orbital sinus puncture 30 minutes and one hour after injections, are collected directly into centrifuge tubes; 5 ml blood samples, taken by decapitation 2 hours after injection, are collected directly into diSPo® beakers. The samples were allowed to clot, centrifuged, and the resultant sera were assayed for complement activity using the capillary complement assay. Percent inhibition is calculated by comparison with simultaneous controls. The results of the GPIP appear in Table I together with results of Test Code 026, 036 and Cap 50.

In the next assay the target is activated human C1 (Homo sapiens, UniProt P09871). In words: Test Code 026 (C1 inhibitor). Type of assay: biochemical. To be noted: serial twofold dilution assay; higher well number indicates higher activity.
In assay [2] the test system is hereditary angioneurotic edema. The conditions noted are these: reported in the literature; cited from earlier work.
Assay [3] concerns shunt pathway activated by cobra venom factor (lysis of human erythrocytes in autologous serum). In words: Test Code 036 (C-Shunt inhibitor). To be noted: serial twofold dilution assay; higher well number indicates higher activity. In kind it is cell-based. The procedure: as §1, with “The results of the GPIP appear in Table I together with results of Test Code 026, 036 and Cap 50.” left out

Another assay concerns complement system. The conditions noted are these: reported in the literature; cited from earlier work.
The next assay deals with human serum complement. To be noted: in vitro and in vivo, judged by reduction in total hemolytic complement activity; cited from earlier work.

For the compound `O=C(Nc1ccc(S(=O)(=O)[O-])c2cc(S(=O)(=O)[O-])cc(S(=O)(=O)[O-])c12)Nc1ccc(S(=O)(=O)[O-])c2cc(S(=O)(=O)[O-])cc(S(=O)(=O)[O-])c12.[Na+].[Na+].[Na+].[Na+].[Na+].[Na+]` [8,8'-Ureylenedi-1,3,5-naphthalenetrisulfonic acid, hexasodium salt], in assay [1], the “In vivo Activity Guinea Pigs Intraperitoneal % Lowering, 30 minutes” value stood at 92%; the “In vivo Activity Guinea Pigs Intraperitoneal % Lowering, 60 minutes” value is reported as 92%; the “In vivo Activity Guinea Pigs Intraperitoneal % Lowering, 120 minutes” value is on record as 94%. `O=C(Nc1cc(S(=O)(=O)[O-])cc2cc(S(=O)(=O)[O-])cc(S(=O)(=O)[O-])c12)Nc1cc(S(=O)(=O)[O-])cc2cc(S(=O)(=O)[O-])cc(S(=O)(=O)[O-])c12.[Na+].[Na+].[Na+].[Na+].[Na+].[Na+]` [8,8'-Ureylenedi-1,3,6-naphthalenetrisulfonic acid, hexasodium salt]: in assay [1], the “In vivo Activity Guinea Pigs Intraperitoneal % Lowering, 30 minutes” value is recorded as 25%; the “In vivo Activity Guinea Pigs Intraperitoneal % Lowering, 60 minutes” value came to 61%; the “In vivo Activity Guinea Pigs Intraperitoneal % Lowering, 120 minutes” value came to 65%. Moreover, at activated human C1, the “C1 026 Wells” value is recorded as “+5 Wells”. As for `O=C(Nc1ccc(S(=O)(=O)[O-])c2ccccc12)Nc1ccc(S(=O)(=O)[O-])c2ccccc12.[Na+].[Na+]` [4,4'-Ureylenedi-1-naphthalenesulfonic acid, disodium salt], at activated human C1, the “C1 026 Wells” value was “+2 Wells”. Turning to `O=C(Nc1ccc2c(S(=O)(=O)[O-])cc(S(=O)(=O)[O-])cc2c1)Nc1ccc2c(S(=O)(=O)[O-])cc(S(=O)(=O)[O-])cc2c1.[Na+].[Na+].[Na+].[Na+]` [6,6'-Ureylenedi-1,3-naphthalenedisulfonic acid, tetrasodium salt], the “C1 026 Wells” value at activated human C1 is “+3 Wells”.

Regarding `O=C(Nc1cc(S(=O)(=O)[O-])cc2ccc(S(=O)(=O)[O-])cc12)Nc1cc(S(=O)(=O)[O-])cc2ccc(S(=O)(=O)[O-])cc12.[Na+].[Na+].[Na+].[Na+]` [4,4'-Ureylenedi-2,6-naphthalenedisulfonic acid, tetrasodium salt], the “C1 026 Wells” value at activated human C1 is “+2 Wells”. Consider `O=C(Nc1cc(S(=O)(=O)O)cc2cc(S(=O)(=O)O)cc(OS(=O)(=O)c3ccccc3)c12)Nc1cc(S(=O)(=O)O)cc2cc(S(=O)(=O)O)cc(OS(=O)(=O)c3ccccc3)c12` [4,4'-Ureylenebis(5-hydroxy-2,7-naphthalenedisulfonic acid), tetrasodium salt dibenzenesulfonate], for which the “C1 026 Wells” value on activated human C1 is listed as “+3 Wells”. For the compound `NC[C@H]1CC[C@H](C(=O)O)CC1` [tranexamic acid], in assay [2], the “success in the treatment of hereditary angioneurotic edema” value is on record as “used with success”.

Turning to `O=C(Nc1ccc(S(=O)(=O)[O-])c2ccc(S(=O)(=O)[O-])cc12)Nc1ccc(S(=O)(=O)[O-])c2ccc(S(=O)(=O)[O-])cc12.[Na+].[Na+].[Na+].[Na+]` [4,4'-Ureylenedi-1,6-naphthalenedisulfonic acid, tetrasodium salt], at activated human C1, the “C1 026 Wells” value was “+3 Wells”. `O=S(=O)([O-])c1cc(NC(=S)Nc2cc(S(=O)(=O)[O-])cc3cc(S(=O)(=O)[O-])cc(S(=O)(=O)[O-])c23)c2c(S(=O)(=O)[O-])cc(S(=O)(=O)[O-])cc2c1.[Na+].[Na+].[Na+].[Na+].[Na+].[Na+]` [8,8'-(2-Thioureylene)di-1,3,6-naphthalenetrisulfonic acid, hexasodium salt]: in assay [1], the “In vivo Activity Guinea Pigs Intraperitoneal % Lowering, 30 minutes” value is given as 41%; the “In vivo Activity Guinea Pigs Intraperitoneal % Lowering, 60 minutes” value is 20%; the “In vivo Activity Guinea Pigs Intraperitoneal % Lowering, 120 minutes” value is listed as 42%. Further, the “C1 026 Wells” value at activated human C1 is on record as “+5 Wells”. On to `O=C(Nc1ccc2cc(S(=O)(=O)O)cc(O)c2c1)Nc1ccc2cc(S(=O)(=O)O)cc(O)c2c1` [7,7'-ureylenebis(1-hydroxy-3-naphthalenesulfonic acid)], for which, at activated human C1, the “C1 026 Wells” value is given as “+2 Wells”. In the case of `O=C(Nc1cc(S(=O)(=O)[O-])cc2cc(S(=O)(=O)[O-])ccc12)Nc1cc(S(=O)(=O)[O-])cc2cc(S(=O)(=O)[O-])ccc12.[Na+].[Na+].[Na+].[Na+]` [4,4'-Ureylenedi-2,7-naphthalenedisulfonic acid, tetrasodium salt], the “C1 026 Wells” value at activated human C1 is listed as “+3 Wells”. Turning to `O=C(Nc1cc(S(=O)(=O)[O-])c2cc(S(=O)(=O)[O-])cc(S(=O)(=O)[O-])c2c1)Nc1cc(S(=O)(=O)[O-])c2cc(S(=O)(=O)[O-])cc(S(=O)(=O)[O-])c2c1.[Na+].[Na+].[Na+].[Na+].[Na+].[Na+]` [7,7'-Ureylenedi-1,3,5-naphthalenetrisulfonic acid, hexasodium salt], in assay [3], the “C-Shunt Inhibition 036 Wells” value was “+1 Wells”. For the same compound, the “C1 026 Wells” value at activated human C1 is reported as “+6 Wells”. On to `Nc1ccc2cc(S(=O)(=O)[O-])cc(O)c2c1N=Nc1ccc(NC(=O)Nc2ccc(N=Nc3c(N)ccc4cc(S(=O)(=O)[O-])cc(O)c34)c(S(=O)(=O)[O-])c2)cc1S(=O)(=O)[O-].[Na+].[Na+].[Na+].[Na+]` [chlorazol fast pink, 3,3'-ureylenebis[6-(2-amino-8-hydroxy-6-sulfo-1-naphthylazo)benzenesulfonic acid], tetrasodium salt], for which, in the assay on complement system, the anti-complementary effect result was “anti-complementary effect”. `O=C(Nc1ccc2c(O)cc(S(=O)(=O)O)cc2c1)Nc1ccc2c(O)cc(S(=O)(=O)O)cc2c1` [6,6'-ureylenebis(1-hydroxy-3-naphthalenesulfonic acid)]: the “C1 026 Wells” value at activated human C1 was “+1 Wells”. Consider pentosanpolysulfoester, for which, in the assay on human serum complement, the “anticomplementary activity on human serum” value is listed as “anticomplementary activity”. In the case of `O=C(Nc1cc(S(=O)(=O)[O-])c2cc([N+](=O)[O-])cc(S(=O)(=O)[O-])c2c1)Nc1cc(S(=O)(=O)[O-])c2cc([N+](=O)[O-])cc(S(=O)(=O)[O-])c2c1.[Na+].[Na+].[Na+].[Na+]` [3,3'-Ureylenebis(7-nitro-1,5-naphthalenedisulfonic acid), tetrasodium salt], the “C1 026 Wells” value at activated human C1 is on record as “+3 Wells”.

Turning to `O=C(Nc1cc(S(=O)(=O)[O-])cc2cccc(S(=O)(=O)[O-])c12)Nc1cc(S(=O)(=O)[O-])cc2cccc(S(=O)(=O)[O-])c12.[Na+].[Na+].[Na+].[Na+]` [8,8'-Ureylenedi-1,6-naphthalenedisulfonic acid, tetrasodium salt], the “C1 026 Wells” value at activated human C1 is listed as “+3 Wells”. Still for that read-out and setting: with `O=C(Nc1cc2ccc(S(=O)(=O)[O-])cc2cc1S(=O)(=O)[O-])Nc1cc2ccc(S(=O)(=O)[O-])cc2cc1S(=O)(=O)[O-].[Na+].[Na+].[Na+].[Na+]` [3,3'-Ureylenedi-2,7-naphthalenedisulfonic acid, tetrasodium salt] the entry was “+3 Wells”. Turning to heparin, in the assay with complement system, the anti-complementary effect result was “anti-complementary effect”. Turning to `NCCCCCC(=O)O` [epsilon-aminocaproic acid], in assay [2], the “success in the treatment of hereditary angioneurotic edema” value is “used with success”.

Take `O=C(Nc1cc2c(O)cc(S(=O)(=O)[O-])cc2cc1S(=O)(=O)[O-])Nc1cc2c(O)cc(S(=O)(=O)[O-])cc2cc1S(=O)(=O)[O-].[Na+].[Na+].[Na+].[Na+]` [3,3'-Ureylenebis(5-hydroxy-2,7-naphthalenedisulfonic acid), tetrasodium salt]: in assay [1], the “In vivo Activity Guinea Pigs Intraperitoneal % Lowering, 30 minutes” value amounted to 4%; the “In vivo Activity Guinea Pigs Intraperitoneal % Lowering, 60 minutes” value is 1%; the “In vivo Activity Guinea Pigs Intraperitoneal % Lowering, 120 minutes” value is on record as 28%. In addition, the “C1 026 Wells” value on activated human C1 is “+4 Wells”.
